Experimental data reported in patent US4017637A, “Benzylamine analgesics” (priority 1975, dated 1977).
Where a name gives a salt, the structure may show the parent alone.

System: rats
Test: Analgesic activity in rats, light beam on tip of tail (modified D'Amour and Smith procedure)
Type: in vivo, rat
Conditions: for ED50: Rattus norvegicus
Procedure: Rats weighing approximately 150 to 200 g. are placed in individual holders, and each holder in turn is situated so that a high intensity light beam shines on the tip of the tail. The intensity of the light beam is adjusted so that normal rats respond by moving their tails out of the light beam in 3 to 8 seconds. The average of two readings taken 20 minutes apart serves as a pre-drug control. Rats are selected for use whose control readings agree within 1 second. Compounds are administered and reaction times are measured every 20 minutes for 2 hours. Analgesic agents cause a significant increase in reaction time.

## CCC(=O)O[C@@H]1CCCC[C@@H]1C(c1cccc(OC)c1)N(C)C.Cl (relative stereo) [Cis-2-[α-Dimethylamino-m-Methoxybenzyl]Cyclohexanol Propionate, Hydrochloride]
I.M., 15.0 mg/kg
  No. Rats Showing Analgesia/No. Rats Tested: 3/10
I.P., 12.5 mg/kg
  No. Rats Showing Analgesia/No. Rats Tested: 3/5

## CN(C)C(c1cccc(O)c1)[C@H]1CCCC[C@H]1O (relative stereo) [1-cis-2-(α-dimethylamino-m-hydroxybenzyl)cyclohexanol]
I.M., 0.41 mg/kg
  No. Rats Showing Analgesia/No. Rats Tested: 4/10
I.M., 0.62 mg/kg
  No. Rats Showing Analgesia/No. Rats Tested: 7/10
I.P., 3.12 mg/kg
  No. Rats Showing Analgesia/No. Rats Tested: 8/10
I.P., 6.25 mg/kg
  No. Rats Showing Analgesia/No. Rats Tested: 6/10
P.O., 3.12 mg/kg
  No. Rats Showing Analgesia/No. Rats Tested: 5/10
P.O., 6.25 mg/kg
  No. Rats Showing Analgesia/No. Rats Tested: 7/10

## COCOc1cccc(C([C@H]2CCCC[C@H]2O)N(C)C)c1 (relative stereo) [cis-2-[α-dimethylamino-m-(methoxymethoxy)benzyl]cyclohexanol]
I.M., 2.5 mg/kg
  No. Rats Showing Analgesia/No. Rats Tested: 3/10
I.M., 5.0 mg/kg
  No. Rats Showing Analgesia/No. Rats Tested: 5/10
I.P., 6.25 mg/kg
  No. Rats Showing Analgesia/No. Rats Tested: 2/5
I.P., 25.0 mg/kg
  No. Rats Showing Analgesia/No. Rats Tested: 5/5

## CN(C)C(c1ccccc1)[C@H]1CCCC[C@H]1O (relative stereo) [Cis-2-[α-Dimethylaminobenzyl]-Cyclohexanol]
I.M., 6.25 mg/kg
  No. Rats Showing Analgesia/No. Rats Tested: 8/10
I.P., 6.25 mg/kg
  No. Rats Showing Analgesia/No. Rats Tested: 9/10
I.P., 12.5 mg/kg
  No. Rats Showing Analgesia/No. Rats Tested: 8/10
P.O., 5.0 mg/kg
  No. Rats Showing Analgesia/No. Rats Tested: 6/10

## CN(C)C(c1cccc(O)c1)[C@H]1CCCC[C@H]1O (stereo partly drawn) [Cis-2-(α-Dimethylamino-m-Hydroxybenzyl) Cyclohexanol, Hydrochloride]
I.M., 2.5 mg/kg
  No. Rats Showing Analgesia/No. Rats Tested: 5/10
I.P., 3.12 mg/kg
  No. Rats Showing Analgesia/No. Rats Tested: 3/5
I.P., 12.5 mg/kg
  No. Rats Showing Analgesia/No. Rats Tested: 4/5
P.O., 5.0 mg/kg
  No. Rats Showing Analgesia/No. Rats Tested: 5/10

## COc1cccc(C([C@H]2CCCC[C@H]2O)N(C)C)c1 (relative stereo) [cis-2-(α-dimethylamino-m-methoxybenzyl)cyclohexanol]
I.P., 25.0 mg/kg
  No. Rats Showing Analgesia/No. Rats Tested: 3/5

## CN1CC[C@]23c4c5ccc(O)c4O[C@H]2[C@@H](O)C=C[C@H]3[C@H]1C5 [morphine, reference compound]
im
  ED50: 2 mg/kg
ip
  ED50: 3.5 mg/kg
po
  ED50: 10 mg/kg
